± gives the expanded uncertainty stated by the source.
How the values were obtained:
[1] = Solid-liquid equilibrium temperature; settings: 101.33 kPa; Crystal; DTA
[2] = Molar enthalpy of transition or fusion; settings: Crystal; DSC
[3] = molar heat capacity at constant pressure; settings: 462.02 K; 101.33 kPa; Crystal; Large sample (1 g) DSC

Structure (SMILES) | Solid-liquid equilibrium temperature [1] [K] | Molar enthalpy of transition or fusion [2] [kJ/mol] | molar heat capacity at constant pressure [3] [J/K/mol]
COc1ccc2oc(=O)cc(C)c2c1 [6-methoxy-4-methylcoumarin] | 436.13 ± 0.22 | 33.3 ± 0.72 | –
Cc1cc(=O)oc2cc(O)ccc12 [7-hydroxy-4-methyl-2H-chromen-2-one] | 462.02 ± 0.24 | 31.4 ± 0.69 | 8.971 ± 0.18
CCOc1ccc2c(C)cc(=O)oc2c1 [7-ethoxy-4-methyl-2H-chromen-2-one] | 387.52 ± 0.2 | 25.8 ± 0.73 | –

From the NIST ThermoML archive (doi:10.1016/j.jct.2011.04.013)
